Test results: US9302999B2, “Substituted triazoles as herbicides” (E. I. DU PONT DE NEMOURS AND COMPANY, priority 2012, dated 2016)

Columns and labels:
Type in all cases: in vivo
[1] = tested on: ducksalad (Heteranthera limosa); test: Test C flooded paddy test: ducksalad; details: scale 0 to 100 (0 no effect, 100 complete control)
Procedure, shortened: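 2-leaf stage plants; pots flooded 3 cm above soil; compound applied into paddy water, depth maintained. Greenhouse 13–15 d. Visual rating vs controls, 0–100 (0 = no effect, 100 = complete control); dash = no result.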

[2] = tested on: chickweed (common chickweed, Stellaria media); test: Test D pre-/postemergence: chickweed
Excerpt: (§1) Seeds of plant species selected from bluegrass (annual bluegrass, Poa annua), blackgrass (Alopecurus myosuroides), canarygrass (Phalaris minor), chickweed (common chickweed, Stellaria media), galium (catchweed bedstraw, Galium aparine), bromegrass, downy (downy bromegrass, Bromus tectorum), field poppy (Papaver rhoeas), field violet (Viola arvensis), foxtail, green (green foxtail, Setaria viridis), deadnettle (henbit deadnettle, Lamium amplexicaule), ryegrass, Italian (Italian ryegrass, Lolium multiflorum), kochia (Kochia scoparia), lambsquarters (Chenopodium album), oilseed rape (Brassica napus), pigweed (Amaranthus retroflexus), Russian thistle (Salsola iberica), chamomile (scentless chamomile, Matricaria inodora), speedwell (bird's-eye speedwell, Veronica persica), barley, spring (spring barley, Hordeum vulgare), wheat, spring (spring wheat, Triticum aestivum), buckwheat, wild (wild buckwheat, Polygonum convolvulus), mustard, wild (wild mustard, Sinapis arvensis), oat, wild (wild oat, Avena fatua), radish, wild (wild radish, Raphanus raphanistrum), windgrass (Apera spica-venti), barley, winter (winter barley, Hordeum vulgare), and wheat, winter (winter wheat, Triticum aestivum) were planted into a silt loam soil and treated preemergence with test chemicals formulated in a non-phytotoxic solvent mixture which included a surfactant. At the same time, these same crop and weed species were planted in pots containing the planting medium comprising spaghnum peat moss, vermiculite, wetting agent and starter nutrients and treated with postemergence applications of the test chemicals formulated in the same manner. Plants ranged in height from 2 to 18 cm (1- to 4-leaf stage).
(§2) Treated plants and controls were maintained in a controlled growth environment for 14 to 21 days after which time all species were compared to controls and visually evaluated. Plant response ratings, summarized in Table D, are based on a scale of 0 to 100 where 0 is no effect and 100 is complete control. A dash (-) response means no test result.

[3] = tested on: barley, spring (spring barley, Hordeum vulgare); test: Test D pre-/postemergence: barley, spring
Excerpt: as §1, §2

[4] = tested on: radish, wild (wild radish, Raphanus raphanistrum); test: Test D pre-/postemergence: radish, wild
Procedure, shortened: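 Scores run from 0 (no effect) to 100 (complete control), assigned by visual comparison with controls after 14 to 21 days in a controlled environment. Both preemergence application to silt loam and postemergence application to 1- to 4-leaf plants were tested.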

[5] = tested on: crabgrass, large (large crabgrass, Digitaria sanguinalis); test: Test F pre-/postemergence: crabgrass, large; details: Preemergence
Excerpt: (§3) Seeds of plant species selected from corn (Zea mays), soybean (Glycine max), velvetleaf (Abutilon theophrasti), lambsquarters (Chenopodium album), poinsettia, wild (wild poinsettia, Euphorbia heterophylla), pigweed, palmer (palmer pigweed, Amaranthus palmeri), waterhemp (common waterhemp, Amaranthus rudis), surinam grass (Brachiaria decumbens), crabgrass, Brazil (Brazilian crabgrass, Digitaria horizontalis), panicum, fall (fall panicum Panicum dichotomiflorum), crabgrass, large (large crabgrass, Digitaria sanguinalis), foxtail, giant (giant foxtail, Setaria faberii), foxtail, green (green foxtail Setaria viridis), goosegrass (Eleusine indica), ragweed (common ragweed, Ambrosia elatior), barnyardgrass (Echinochloa crus-galli), sandbur (southern sandbur, Cenchrus echinatus), arrowleaf sida (Sida rhombifolia), ryegrass, Italian (Italian ryegrass, Lolium multiflorum), dayflower, VA (Virginia (VA) dayflower, Commelina virginica), field bindweed (Convolvulus arvensis), cocklebur (common cocklebur, Xanthium strumarium), morningglory (Ipomoea coccinea), nightshade (eastern black nightshade, Solanum ptycanthum), kochia (Kochia scoparia), nutsedge, yellow (yellow nutsedge, Cyperus esculentus), johnsongrass (Sorghum halepense), smartweed (ladysthumb smartweed, Polygonum persicaria), and beggarticks (hairy beggarticks, Bidens pilosa), were planted into a silt loam soil and treated preemergence with test chemicals formulated in a non-phytotoxic solvent mixture which included a surfactant. At the same time, plants selected from these crop and weed species and also pigweed (Amaranthus retroflexus), waterhemp_RES1 (ALS/Triazine resistant common waterhemp, Amaranthus rudis) and waterhemp_RES2 (ALS/HPPD resistant common waterhemp, Amaranthus rudis) were planted in pots containing a planting medium comprising spaghnum peat moss, vermiculite, wetting agent and starter nutrients treated with postemergence applications of some of the test chemicals formulated in the same manner. Plants ranged in height from 2 to 18 cm for postemergence treatments (1- to 4-leaf stage).
as §2, with “greenhouse” for “controlled growth environment”, “days,” for “days”, “E,” for “D,”

[6] = tested on: barnyardgrass (Echinochloa crus-galli); test: Test F pre-/postemergence: barnyardgrass
Excerpt: as §3
as §2, with “greenhouse” for “controlled growth environment”, “days,” for “days”, “E,” for “D,”

[7] = tested on: arrowleaf sida (Sida rhombifolia); test: Test F pre-/postemergence: arrowleaf sida
Excerpt: as §3
as §2, with “greenhouse” for “controlled growth environment”, “days,” for “days”, “E,” for “D,”

[8] = Postemergence, 31 g ai/ha, scale 0 to 100 (0 no effect, 100 complete control)
[9] = Postemergence, 62 g ai/ha, scale 0 to 100 (0 no effect, 100 complete control)
[10] = Postemergence, 125 g ai/ha, scale 0 to 100, 0 no effect, 100 complete control
[11] = Postemergence, 250 g ai/ha, scale 0 to 100 (0 no effect, 100 complete control)
[12] = Postemergence, 16 g ai/ha, scale 0 to 100
[13] = Preemergence, 16 g ai/ha, scale 0 to 100, 0 no effect, 100 complete control
[14] = Preemergence, 31 g ai/ha, scale 0 to 100, 0 no effect, 100 complete control
[15] = Preemergence, 62 g ai/ha, scale 0 to 100
[16] = Preemergence, 125 g ai/ha, scale 0 to 100
[17] = Preemergence, 250 g ai/ha, scale 0 to 100
[18] = 16 g ai/ha, scale 0 to 100, 0 no effect, 100 complete control
[19] = 31 g ai/ha, scale 0 to 100, 0 no effect, 100 complete control
[20] = Postemergence, 8 g ai/ha, scale 0 to 100
[21] = Postemergence, 31 g ai/ha, scale 0 to 100
[22] = Postemergence, 62 g ai/ha, scale 0 to 100
[23] = Postemergence, 125 g ai/ha, scale 0 to 100

## Cc1nn(-c2ccc(C(F)(F)F)cc2)nc1Oc1ccnc(C(F)(F)F)c1 [Compound 120]
[1]; Flood (flooded paddy test), 125 g ai/ha, visual rating after 13 to 15 days
  Plant response rating, Ducksalad: 80
[1]; Flood (flooded paddy test), 250 g ai/ha, visual rating after 13 to 15 days
  Plant response rating, Ducksalad: 85
[1]; Flood, 62 g ai/ha
  Plant response rating, Ducksalad: 70
[2]; [8]
  Plant response rating: Chickweed: 85
[2]; [9]
  Plant response rating: Chickweed: 98
[2]; [10]
  Plant response rating: Chickweed: 100
[2]; [11]
  Plant response rating: Chickweed: 100
[2]; [12]
  Plant response rating, Chickweed: 75
[2]; [13]
  Plant response rating, Chickweed: 20
[2]; [14]
  Plant response rating, Chickweed: 90
[2]; [15]
  Plant response rating, Chickweed: 90
[2]; [16]
  Plant response rating, Chickweed: 100
[2]; [17]
  Plant response rating, Chickweed: 100
[3]; [8]
  Plant response rating: Barley, Spring: 10
[3]; [9]
  Plant response rating: Barley, Spring: 15
[3]; [10]
  Plant response rating: Barley, Spring: 15
[3]; [11]
  Plant response rating: Barley, Spring: 30
[3]; [12]
  Plant response rating, Barley, Spring: 5
[3]; [13]
  Plant response rating, Barley, Spring: 0
[3]; [14]
  Plant response rating, Barley, Spring: 0
[3]; [15]
  Plant response rating, Barley, Spring: 5
[3]; [16]
  Plant response rating, Barley, Spring: 10
[3]; [17]
  Plant response rating, Barley, Spring: 20
[4]; [8]
  Plant response rating: Radish, Wild: 100
[4]; [9]
  Plant response rating: Radish, Wild: 90
[4]; [10]
  Plant response rating: Radish, Wild: 100
[4]; [11]
  Plant response rating: Radish, Wild: 100
[4]; [12]
  Plant response rating, Radish, Wild: 100
[4]; [13]
  Plant response rating, Radish, Wild: 0
[4]; [15]
  Plant response rating, Radish, Wild: 20
[4]; [16]
  Plant response rating, Radish, Wild: 90
[4]; [17]
  Plant response rating, Radish, Wild: 100

## COc1nn(-c2cccc(F)c2)nc1Cc1ccnc(C(F)(F)F)c1 [Compound 139]
[5]; [18]
  Plant response rating, Crabgrass, Large: 30
[5]; [19]
  Plant response rating, Crabgrass, Large: 95
[5]; 62 g ai/ha, scale 0 to 100
  Plant response rating, Crabgrass, Large: 95
[5]; 125 g ai/ha, scale 0 to 100
  Plant response rating, Crabgrass, Large: 100
[5]; 250 g ai/ha, scale 0 to 100
  Plant response rating, Crabgrass, Large: 100
[6]; [13]
  Plant response rating, Barnyardgrass: 0
[6]; [14]
  Plant response rating, Barnyardgrass: 10
[6]; [15]
  Plant response rating, Barnyardgrass: 10
[6]; [16]
  Plant response rating, Barnyardgrass: 10
[6]; [17]
  Plant response rating, Barnyardgrass: 98
[7]; [13]
  Plant response rating, Arrowleaf Sida: 0
[7]; [14]
  Plant response rating, Arrowleaf Sida: 0
[7]; [15]
  Plant response rating, Arrowleaf Sida: 0
[7]; [16]
  Plant response rating, Arrowleaf Sida: 0
[7]; [17]
  Plant response rating, Arrowleaf Sida: 0

## Cc1nn(-c2ccnc(Cl)c2)nc1Cc1ccnc(C(F)(F)F)c1 [Compound 141]
[6]; [20]
  Plant response rating, Barnyardgrass: 10
[6]; [12]
  Plant response rating, Barnyardgrass: 20
[6]; [21]
  Plant response rating, Barnyardgrass: 20
[6]; [22]
  Plant response rating, Barnyardgrass: 30
[6]; [23]
  Plant response rating, Barnyardgrass: 40
[7]; [20]
  Plant response rating, Arrowleaf Sida: 40
[7]; [12]
  Plant response rating, Arrowleaf Sida: 50
[7]; [21]
  Plant response rating, Arrowleaf Sida: 60
[7]; [22]
  Plant response rating, Arrowleaf Sida: 70
[7]; [23]
  Plant response rating, Arrowleaf Sida: 75

## Cc1nn(-c2ccc(F)cc2F)nc1Oc1ccnc(C(F)(F)F)c1 [Compound 146]
[5]; [18]
  Plant response rating, Crabgrass, Large: 0
[5]; [19]
  Plant response rating, Crabgrass, Large: 75
[5]; 62 g ai/ha, scale 0 to 100
  Plant response rating, Crabgrass, Large: 98
[5]; 125 g ai/ha, scale 0 to 100
  Plant response rating, Crabgrass, Large: 98
[5]; 250 g ai/ha, scale 0 to 100
  Plant response rating, Crabgrass, Large: 100
[6]; [13]
  Plant response rating, Barnyardgrass: 0
[6]; [14]
  Plant response rating, Barnyardgrass: 0
[6]; [15]
  Plant response rating, Barnyardgrass: 10
[6]; [16]
  Plant response rating, Barnyardgrass: 10
[6]; [17]
  Plant response rating, Barnyardgrass: 20
[7]; [13]
  Plant response rating, Arrowleaf Sida: 0
[7]; [14]
  Plant response rating, Arrowleaf Sida: 0
[7]; [15]
  Plant response rating, Arrowleaf Sida: 0
[7]; [16]
  Plant response rating, Arrowleaf Sida: 0
[7]; [17]
  Plant response rating, Arrowleaf Sida: 10
